Values after ≈ are worked out from the molar mass of the structure shown. Read-outs that look alike come from different tables or passages of the source.
Key:
Experiment in all cases: in vitro antibacterial activity, standard agar dilution method
Format in all cases: cell-based
[1] = system: Bacillus subtilis PCI 219; details: PCI219, aerobic, read-out: minimum inhibitory concentration (MIC)
[2] = system: Staphylococcus aureus FDA 209P JC-1; details: FDA209P, read-out: minimum inhibitory concentration (MIC)
[3] = system: Staphylococcus aureus NR 2855; details: NR2855; Staphylococcus aureus NR 2855; aerobic; agar dilution; read-out: minimum inhibitory concentration (MIC)
[4] = system: Staphylococcus aureus Smith; details: read-out: minimum inhibitory concentration (MIC)
[5] = system: Staphylococcus epidermidis IFO 12993; details: IFO12993, aerobic, read-out: minimum inhibitory concentration (MIC)
[6] = system: Staphylococcus epidermidis NR 2942; details: NR2942, aerobic, read-out: minimum inhibitory concentration (MIC)
[7] = system: Enterococcus faecalis NR 2943; details: NR2943, aerobic, read-out: minimum inhibitory concentration (MIC)
[8] = system: Alcaligenes faecalis IFO 13111; details: IFO13111, aerobic, read-out: minimum inhibitory concentration (MIC)
[9] = system: Citrobacter freundii IFO 12681; details: IFO12681, aerobic, read-out: minimum inhibitory concentration (MIC)
[10] = system: Enterobacter aerogenes NR 2945; details: Klebsiella aerogenes, NR2945, aerobic, read-out: minimum inhibitory concentration (MIC)
[11] = system: Enterobacter cloacae NR 2946; details: NR2946, aerobic, read-out: minimum inhibitory concentration (MIC)
[12] = system: Escherichia coli NIHJ JC-2; details: NIHJJC2, aerobic, read-out: minimum inhibitory concentration (MIC)
[13] = system: Escherichia coli NR 2630; details: NR2630; Escherichia coli NR 2630; aerobic; agar dilution; read-out: minimum inhibitory concentration (MIC)
[14] = system: Klebsiella pneumoniae FDA PCI 602; details: FDAPCI602, aerobic, read-out: minimum inhibitory concentration (MIC)
[15] = system: Bordetella bronchiseptica ATCC 4617; details: ATCC4617, aerobic, read-out: minimum inhibitory concentration (MIC)
[16] = system: Proteus rettgeri ATCC 14505; details: Providencia rettgeri, ATCC14505, aerobic, read-out: minimum inhibitory concentration (MIC)
[17] = system: Proteus vulgaris OX19 ATCC 6898; details: ATCC6898, aerobic, read-out: minimum inhibitory concentration (MIC)
[18] = system: Pseudomonas aeruginosa A3; details: aerobic, read-out: minimum inhibitory concentration (MIC)
[19] = system: Pseudomonas aeruginosa NR 2950; details: NR2950, aerobic, read-out: minimum inhibitory concentration (MIC)
[20] = system: Serratia marcescens IFO 12648; details: IFO12648, aerobic, read-out: minimum inhibitory concentration (MIC)
[21] = system: Salmonella typhimurium IFO 12529; details: Salmonella enterica, aerobic, read-out: minimum inhibitory concentration (MIC)
[22] = Staphylococcus aureus FDA 209P JC-1, aerobic, agar dilution
[23] = Staphylococcus aureus Smith, aerobic, agar dilution

SMILES | MIC [1] [µg/mL] | MIC [3] [µg/mL] | MIC [5] [µg/mL] | MIC [6] [µg/mL] | MIC [7] [µg/mL] | MIC [8] [µg/mL] | MIC [9] [µg/mL] | MIC [10] [µg/mL] | MIC [11] [µg/mL] | MIC [12] [µg/mL] | MIC [13] [µg/mL] | MIC [14] [µg/mL] | MIC [15] [µg/mL] | MIC [16] [µg/mL] | MIC [17] [µg/mL] | MIC [18] [µg/mL] | MIC [19] [µg/mL] | MIC [20] [µg/mL] | MIC [21] [µg/mL] | MIC [2, 22] [µg/mL] | further results
CCNC1CCN(c2c(F)cc3c(=O)c(C(=O)O)cn4c3c2OCN4C)CC1 [Example 35] | 0.05 (≈ 0.128 µM) | 1.56 (≈ 4 µM) | 0.78 (≈ 2 µM) | 0.78 (≈ 2 µM) | 6.25 (≈ 16 µM) | 25 (≈ 64 µM) | 0.2 (≈ 0.512 µM) | 0.1 (≈ 0.256 µM) | 0.39 (≈ 0.999 µM) | 0.1 (≈ 0.256 µM) | 0.1 (≈ 0.256 µM) | 1.56 (≈ 4 µM) | 12.5 (≈ 32 µM) | 3.13 (≈ 8.02 µM) | 0.05 (≈ 0.128 µM) | 1.56 (≈ 4 µM) | 12.5 (≈ 32 µM) | 1.56 (≈ 4 µM) | 0.1 (≈ 0.256 µM) | – | MIC ([2]; Staphylococcus aureus): 0.39 µg/mL (≈ 0.999 µM); MIC ([4]; Staphylococcus aureus): 0.39 µg/mL (≈ 0.999 µM)
CN1COc2c(N3CCS(=O)(=O)CC3)c(F)cc3c(=O)c(C(=O)O)cn1c23 [Example 39, 10-(1,1-dioxide-4-thiomorpholinyl)-9-fluoro-3-methyl-7-oxo-2,3-dihydro-7H-pyrido[3,2,1-ij]-1,3,4-benzoxadiazine-6-carboxylic acid] | 0.025 (≈ 0.0629 µM) | 0.78 (≈ 1.96 µM) | 0.39 (≈ 0.981 µM) | 0.39 (≈ 0.981 µM) | 12.5 (≈ 31.5 µM) | 6.25 (≈ 15.7 µM) | 0.78 (≈ 1.96 µM) | 0.05 (≈ 0.126 µM) | 0.78 (≈ 1.96 µM) | 0.78 (≈ 1.96 µM) | 0.025 (≈ 0.0629 µM) | 1.56 (≈ 3.93 µM) | 0.78 (≈ 1.96 µM) | 3.13 (≈ 7.88 µM) | 0.05 (≈ 0.126 µM) | 3.13 (≈ 7.88 µM) | 12.5 (≈ 31.5 µM) | 1.56 (≈ 3.93 µM) | 0.2 (≈ 0.503 µM) | 0.39 (≈ 0.981 µM) | MIC [4, 23]: 0.39 µg/mL (≈ 0.981 µM)
CC(=O)CN1CCN(c2c(F)cc3c(=O)c(C(=O)O)cn4c3c2OCN4C)CC1 [Example 40, 9-fluoro-3-methyl-7-oxo-10-[4-(2-oxo-n-propyl)-1-piperazinyl]-2,3-dihydro-7H-pyrido[3,2,1-ij]-1,3,4-benzoxadiazine-6-carboxylic acid] | 0.1 (≈ 0.247 µM) | 0.78 (≈ 1.93 µM) | 1.56 (≈ 3.86 µM) | 0.78 (≈ 1.93 µM) | 12.5 (≈ 30.9 µM) | 6.25 (≈ 15.5 µM) | 0.2 (≈ 0.495 µM) | 0.1 (≈ 0.247 µM) | 0.39 (≈ 0.964 µM) | 0.39 (≈ 0.964 µM) | 0.2 (≈ 0.495 µM) | 1.56 (≈ 3.86 µM) | 1.56 (≈ 3.86 µM) | 3.13 (≈ 7.74 µM) | 0.2 (≈ 0.495 µM) | 1.56 (≈ 3.86 µM) | 12.5 (≈ 30.9 µM) | 1.56 (≈ 3.86 µM) | 0.39 (≈ 0.964 µM) | 1.56 (≈ 3.86 µM) | MIC [4, 23]: 0.78 µg/mL (≈ 1.93 µM)
CN1COc2c(N3CCN(CC(=O)c4ccccc4)CC3)c(F)cc3c(=O)c(C(=O)O)cn1c23 [Example 41] | 3.13 (≈ 6.71 µM) | 6.25 (≈ 13.4 µM) | 6.25 (≈ 13.4 µM) | 12.5 (≈ 26.8 µM) | 100 (≈ 214 µM) | 50 (≈ 107 µM) | 0.39 (≈ 0.836 µM) | 0.1 (≈ 0.214 µM) | 0.78 (≈ 1.67 µM) | 0.78 (≈ 1.67 µM) | 0.39 (≈ 0.836 µM) | 3.13 (≈ 6.71 µM) | 25 (≈ 53.6 µM) | 3.13 (≈ 6.71 µM) | 1.56 (≈ 3.34 µM) | 3.13 (≈ 6.71 µM) | 12.5 (≈ 26.8 µM) | 3.13 (≈ 6.71 µM) | 0.78 (≈ 1.67 µM) | 6.25 (≈ 13.4 µM) | MIC [4, 23]: 6.25 µg/mL (≈ 13.4 µM)
CCCN1CCN(c2c(F)cc3c(=O)c(C(=O)O)cn4c3c2OCN4C)CC1 [Example 43] | 0.1 (≈ 0.256 µM) | 0.78 (≈ 2 µM) | 0.39 (≈ 0.999 µM) | 0.39 (≈ 0.999 µM) | 6.25 (≈ 16 µM) | 0.78 (≈ 2 µM) | 0.1 (≈ 0.256 µM) | 0.1 (≈ 0.256 µM) | 0.1 (≈ 0.256 µM) | 0.1 (≈ 0.256 µM) | 0.05 (≈ 0.128 µM) | 0.39 (≈ 0.999 µM) | 0.39 (≈ 0.999 µM) | 0.78 (≈ 2 µM) | 0.1 (≈ 0.256 µM) | 0.78 (≈ 2 µM) | 6.25 (≈ 16 µM) | 0.2 (≈ 0.512 µM) | 0.1 (≈ 0.256 µM) | 0.78 (≈ 2 µM) | MIC [4, 23]: 0.39 µg/mL (≈ 0.999 µM)
C=CCN1CCN(c2c(F)cc3c(=O)c(C(=O)O)cn4c3c2OCN4C)CC1 [Example 46] | 0.05 (≈ 0.129 µM) | 0.39 (≈ 1 µM) | 0.78 (≈ 2.01 µM) | 0.39 (≈ 1 µM) | 6.25 (≈ 16.1 µM) | 1.56 (≈ 4.02 µM) | 0.1 (≈ 0.257 µM) | 0.1 (≈ 0.257 µM) | 0.2 (≈ 0.515 µM) | 0.1 (≈ 0.257 µM) | 0.05 (≈ 0.129 µM) | 0.78 (≈ 2.01 µM) | 0.39 (≈ 1 µM) | 1.56 (≈ 4.02 µM) | 0.05 (≈ 0.129 µM) | 1.56 (≈ 4.02 µM) | 6.25 (≈ 16.1 µM) | 0.39 (≈ 1 µM) | 0.1 (≈ 0.257 µM) | 0.78 (≈ 2.01 µM) | MIC [4, 23]: 0.39 µg/mL (≈ 1 µM)
CN1COc2c(N3CCN(C(=O)CCC(=O)O)CC3)c(F)cc3c(=O)c(C(=O)O)cn1c23 [Example 49, 10-[4-(3-carboxypropionyl)-1-piperazinyl]-9-fluoro-3-methyl-7-oxo-2,3-dihydro-7H-pyrido[3,2,1-ij]-1,3,4-benzoxadiazine-6-carboxylic acid] | 3.13 (≈ 6.98 µM) | 12.5 (≈ 27.9 µM) | 12.5 (≈ 27.9 µM) | 12.5 (≈ 27.9 µM) | 100 (≈ 223 µM) | 100 (≈ 223 µM) | 0.39 (≈ 0.87 µM) | 0.39 (≈ 0.87 µM) | 0.78 (≈ 1.74 µM) | 1.56 (≈ 3.48 µM) | 0.39 (≈ 0.87 µM) | 1.56 (≈ 3.48 µM) | 50 (≈ 112 µM) | 3.13 (≈ 6.98 µM) | 0.78 (≈ 1.74 µM) | 3.13 (≈ 6.98 µM) | 50 (≈ 112 µM) | 3.13 (≈ 6.98 µM) | 0.39 (≈ 0.87 µM) | 6.25 (≈ 13.9 µM) | MIC [4, 23]: 6.25 µg/mL (≈ 13.9 µM)

— patent US4864023A, “Pyrido(3,2,1-IJ)-1,3,4-benzoxadiazine derivatives” (priority 1988, dated 1989)
